# Measurements from US20080114007A1 (priority 2006, published 2008).
# Biological target: CSF-1R (Homo sapiens, UniProt P07333)
# Experiment: Peptide (non-phosphorylated) assay, fluorescence polarization competition immunoassay
# Type: biochemical
# Conditions: 0.7 nM CSF-1R, 308 μM SYEGNSYTFIDPTQ peptide, 1 mM ATP, 80 min; mean of at least three determinations; read-out: c-fms Peptide IC50
# Procedure: The kinase reaction was initiated by adding 1 μL of 10 mM ATP in assay buffer. […] Positive and negative control wells were included on each plate, where 4% DMSO in assay buffer was substituted for the compound; in addition, positive control wells received 1.2 μL of 50 mM EDTA before the start of the reaction.
# The plates were covered and incubated at room temperature for 80 min. Reactions were stopped by addition of 1.2 μL of 50 mM EDTA. Each well then received 10 μL of a 1:1:3 mixture of 10× anti-phosphotyrosine antibody, 10×PTK green tracer, and FP dilution buffer, respectively (Cat. # P2837, Invitrogen, Carlsbad, Calif.). The plates were covered, incubated for 30 min at room temperature, and the fluorescence polarization was read on an Analyst plate reader (Molecular Devices).
# Chain of CSF-1R (P07333 20-972): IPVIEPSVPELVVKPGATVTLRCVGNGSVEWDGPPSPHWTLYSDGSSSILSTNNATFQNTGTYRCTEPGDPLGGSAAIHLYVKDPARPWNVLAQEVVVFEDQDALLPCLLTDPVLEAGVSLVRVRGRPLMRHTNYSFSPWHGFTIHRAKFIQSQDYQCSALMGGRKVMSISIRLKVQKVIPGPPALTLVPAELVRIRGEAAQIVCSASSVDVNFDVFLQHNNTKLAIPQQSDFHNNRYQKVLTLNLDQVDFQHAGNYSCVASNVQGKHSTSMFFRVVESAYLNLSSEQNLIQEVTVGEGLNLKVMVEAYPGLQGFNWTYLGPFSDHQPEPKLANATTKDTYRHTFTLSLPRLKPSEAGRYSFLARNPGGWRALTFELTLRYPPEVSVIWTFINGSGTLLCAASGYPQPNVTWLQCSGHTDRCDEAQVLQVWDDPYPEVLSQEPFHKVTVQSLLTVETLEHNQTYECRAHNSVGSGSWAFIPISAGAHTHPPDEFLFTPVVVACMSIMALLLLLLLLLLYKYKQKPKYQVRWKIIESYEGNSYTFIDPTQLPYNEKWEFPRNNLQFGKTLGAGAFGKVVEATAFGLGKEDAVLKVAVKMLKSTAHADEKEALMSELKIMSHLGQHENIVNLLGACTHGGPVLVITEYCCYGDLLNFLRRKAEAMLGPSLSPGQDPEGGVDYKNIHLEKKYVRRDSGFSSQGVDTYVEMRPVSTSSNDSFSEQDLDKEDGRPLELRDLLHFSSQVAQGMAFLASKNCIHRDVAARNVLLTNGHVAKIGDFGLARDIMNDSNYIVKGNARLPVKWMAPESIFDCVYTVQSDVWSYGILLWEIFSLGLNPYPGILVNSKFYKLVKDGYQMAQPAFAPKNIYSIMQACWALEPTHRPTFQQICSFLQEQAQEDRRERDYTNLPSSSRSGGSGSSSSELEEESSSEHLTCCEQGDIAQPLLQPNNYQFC
row,IC50 [nM],SMILES
1,0.59,"CONC(=O)c1cn(-c2ccc3c(c2)CCC3)c2nc(Nc3ccc(CCN4CCC4)cc3)ncc2c1=O [Cpd 262, 2-[4-(2-azetidin-1-yl-ethyl)-phenylamino]-8-indan-5-yl-5-oxo-5,8-dihydro-pyrido[2,3-d]pyrimidine-6-carboxylic acid methoxy-amide]"
2,0.62,"CONC(=O)c1cn(-c2ccc3c(c2)CCC3)c2nc(Nc3ccc(CCN4CC(F)C4)cc3)ncc2c1=O [Cpd 266, 2-{4-[2-(3-fluoro-azetidin-1-yl)-ethyl]-phenylamino}-8-indan-5-yl-5-oxo-5,8-dihydro-pyrido[2,3-d]pyrimidine-6-carboxylic acid methoxy-amide]"
3,0.4,"CCONC(=O)c1cn(-c2ccc(CC)cc2)c2nc(Nc3ccc(C4CCN(CCO)CC4)cc3)ncc2c1=O [Cpd 183, 8-(4-ethyl-phenyl)-2-{4-[1-(2-hydroxy-ethyl)-piperidin-4-yl]-phenylamino}-5-oxo-5,8-dihydro-pyrido[2,3-d]pyrimidine-6-carboxylic acid ethoxy-amide]"
4,1,"CCONC(=O)c1cn(-c2ccc3c(c2)CCC3)c2nc(Nc3ccc(C4CCN(C)CC4)cc3)ncc2c1=O [Cpd 139, 8-indan-5-yl-2-[4-(1-methyl-piperidin-4-yl)-phenylamino]-5-oxo-5,8-dihydro-pyrido[2,3-d]pyrimidine-6-carboxylic acid ethoxy-amide]"
5,1,"CONC(=O)c1cn(-c2ccc3c(c2)CCC3)c2nc(Nc3ccc(C[C@H]4COC(=O)N4)cc3)ncc2c1=O [Cpd 67, (S)-8-indan-5-yl-5-oxo-2-[4-(2-oxo-oxazolidin-4-ylmethyl)-phenylamino]-5,8-dihydro-pyrido[2,3-d]pyrimidine-6-carboxylic acid methoxy-amide]"
6,0.9,"CONC(=O)c1cn(-c2ccc3c(c2)CCC3)c2nc(Nc3ccc(Cn4cncn4)cc3)ncc2c1=O [Cpd 283, 8-indan-5-yl-5-oxo-2-(4-[1,2,4]triazol-1-ylmethyl-phenylamino)-5,8-dihydro-pyrido[2,3-d]pyrimidine-6-carboxylic acid methoxy-amide]"
7,1.3,"CONC(=O)c1cn(-c2ccc3c(c2)CCC3)c2nc(Nc3ccc4c(ccn4C)c3)ncc2c1=O [Cpd 291, 8-indan-5-yl-2-(1-methyl-1H-indol-5-ylamino)-5-oxo-5,8-dihydro-pyrido[2,3-d]pyrimidine-6-carboxylic acid methoxy-amide]"
8,1.7,"CCONC(=O)c1cn(-c2ccc3c(c2)CCC3)c2nc(Nc3ccc(C4CCN(C(C)=O)CC4)cc3)ncc2c1=O [Cpd 70, 2-[4-(1-acetyl-piperidin-4-yl)-phenylamino]-8-indan-5-yl-5-oxo-5,8-dihydro-pyrido[2,3-d]pyrimidine-6-carboxylic acid ethoxy-amide]"
9,1,"CONC(=O)c1cn(-c2ccc(OC(F)(F)F)cc2)c2nc(Nc3ccc(CCN4CCN(C)CC4)cc3)ncc2c1=O [Cpd 175, 2-{4-[2-(4-methylpiperazin-1-yl)-ethyl]-phenylamino}-5-oxo-8-(4-trifluoromethoxy-phenyl)-5,8-dihydropyrido[2,3-d]pyrimidine-6-carboxylic acid methoxy-amide]"
10,0.94,"COCCOc1ccc(Nc2ncc3c(=O)c(C(=O)NOC)cn(-c4ccc5c(c4)CCC5)c3n2)cc1 [Cpd 258, 8-indan-5-yl-2-[4-(2-methoxy-ethoxy)-phenylamino]-5-oxo-5,8-dihydro-pyrido[2,3-d]pyrimidine-6-carboxylic acid methoxy-amide]"
11,0.76,"CONC(=O)c1cn(-c2ccc3c(c2)CCC3)c2nc(Nc3ccc(CCn4ccnc4)cc3)ncc2c1=O [Cpd 171, 2-[4-(2-imidazol-1-yl-ethyl)-phenylamino]-8-indan-5-yl-5-oxo-5,8-dihydro-pyrido[2,3-d]pyrimidine-6-carboxylic acid methoxy-amide]"
12,2.6,"CONC(=O)c1cn(-c2ccc3c(c2)CCC3)c2nc(Nc3ccc(C4CCN(S(N)(=O)=O)CC4)cc3)ncc2c1=O [Cpd 178, 8-indan-5-yl-5-oxo-2-[4-(1-sulfamoyl-piperidin-4-yl)-phenylamino]-5,8-dihydro-pyrido[2,3-d]pyrimidine-6-carboxylic acid methoxy-amide]"

# The next lines start with the molecule.
row,SMILES,IC50 [nM]
1,"CCc1ccc(-n2cc(C(=O)NOC)c(=O)c3cnc(Nc4ccc(C5CCCCN5)cc4)nc32)cc1 (stereo not drawn) [Cpd 242, 8-(4-ethyl-phenyl)-5-oxo-2-(4-piperidin-2-yl-phenylamino)-5,8-dihydro-pyrido[2,3-d]pyrimidine-6-carboxylic acid methoxy-amide]",0.59
2,"CCONC(=O)c1cn(C2CC2)c2nc(Nc3ccc(CCN4CCCC4)cc3)ncc2c1=O [Cpd 142, 8-cyclopropyl-5-oxo-2-[4-(2-pyrrolidin-1-yl-ethyl)-phenylamino]-5,8-dihydro-pyrido[2,3-d]pyrimidine-6-carboxylic acid ethoxy-amide]",66
3,"CONC(=O)c1cn(-c2ccc3c(c2)CCC3)c2nc(Nc3ccc(CCN4CCCC(F)C4)cc3)ncc2c1=O (stereo not drawn) [Cpd 256, 2-{4-[2-(3-fluoro-piperidin-1-yl)-ethyl]-phenylamino}-8-indan-5-yl-5-oxo-5,8-dihydro-pyrido[2,3-d]pyrimidine-6-carboxylic acid methoxy-amide]",0.88
4,"CONC(=O)c1cn(-c2ccc3c(c2)CCC3)c2nc(Nc3ccc(C4CCN(CC(=O)O)CC4)cc3)ncc2c1=O [Cpd 219, {4-[4-(8-indan-5-yl-6-methoxycarbamoyl-5-oxo-5,8-dihydro-pyrido[2,3-d]pyrimidin-2-ylamino)-phenyl]-piperidin-1-yl}-acetic acid]",2.2
5,"CONC(=O)c1cn(-c2ccc3c(c2)CCC3)c2nc(Nc3ccc(CCN4CCCC4)cc3)ncc2c1=O [Cpd 130, 8-indan-5-yl-5-oxo-2-[4-(2-pyrrolidin-1-yl-ethyl)-phenylamino]-5,8-dihydro-pyrido[2,3-d]pyrimidine-6-carboxylic acid methoxy-amide]",1.6
6,"CNS(=O)(=O)CCc1ccc(Nc2ncc3c(=O)c(C(=O)NOC)cn(-c4ccc5c(c4)CCC5)c3n2)cc1 [Cpd 89, 8-indan-5-yl-2-[4-(2-methylsulfamoyl-ethyl)-phenylamino]-5-oxo-5,8-dihydro-pyrido[2,3-d]pyrimidine-6-carboxylic acid methoxy-amide]",1.4
7,"CONC(=O)c1cn(-c2ccc(OC(F)(F)F)cc2)c2nc(Nc3ccc(C4CCN(C)CC4)cc3)ncc2c1=O [Cpd 159, 2-[4-(1-methylpiperidin-4-yl)-phenylamino]-5-oxo-8-(4-trifluoromethoxyphenyl)-5,8-dihydropyrido[2,3-d]pyrimidine-6-carboxylic acid methoxy-amide]",0.66
8,"CONC(=O)c1cn(-c2ccc3c(c2)CCC3)c2nc(Nc3ccc(CCNCCS(C)(=O)=O)cc3)ncc2c1=O [Cpd 99, 8-indan-5-yl-2-{4-[2-(2-methanesulfonyl-ethylamino)-ethyl]-phenylamino}-5-oxo-5,8-dihydro-pyrido[2,3-d]pyrimidine-6-carboxylic acid methoxy-amide]",0.9
9,"CONC(=O)c1cn(-c2ccc3c(c2)CCC3)c2nc(Nc3ccc(CCN(CCO)CCO)cc3)ncc2c1=O [Cpd 100, 2-(4-{2-[bis-(2-hydroxy-ethyl)-amino]-ethyl}-phenylamino)-8-indan-5-yl-5-oxo-5,8-dihydro-pyrido[2,3-d]pyrimidine-6-carboxylic acid methoxy-amide]",0.64
10,"CONC(=O)c1cn(-c2ccc3c(c2)CCC3)c2nc(Nc3ccc(CCC(=O)NS(C)(=O)=O)cc3)ncc2c1=O [Cpd 153, 8-indan-5-yl-2-[4-(3-methanesulfonylamino-3-oxo-propyl)-phenylamino]-5-oxo-5,8-dihydro-pyrido[2,3-d]pyrimidine-6-carboxylic acid methoxy-amide]",3.2
11,"CC(C)ONC(=O)c1cn(-c2ccc3c(c2)CCC3)c2nc(Nc3ccc(CCN4CCN(C)CC4)cc3)ncc2c1=O [Cpd 63, 8-indan-5-yl-2-{4-[2-(4-methyl-piperazin-1-yl)-ethyl]-phenylamino}-5-oxo-5,8-dihydro-pyrido[2,3-d]pyrimidine-6-carboxylic acid isopropoxy-amide]",0.52
12,"CONC(=O)c1cn(-c2ccc(C)c(C)c2)c2nc(Nc3ccc(CCN4CCCC4=O)cc3)ncc2c1=O [Cpd 50, 8-(3,4-dimethyl-phenyl)-5-oxo-2-{4-[2-(2-oxo-pyrrolidin-1-yl)-ethyl]-phenylamino}-5,8-dihydro-pyrido[2,3-d]pyrimidine-6-carboxylic acid methoxy-amide]",1.2
13,"CCc1ccc(-n2cc(C(=O)NOC)c(=O)c3cnc(Nc4ccc(CCN5CCCC5=O)cc4)nc32)cc1 [Cpd 54, 8-(4-ethyl-phenyl)-5-oxo-2-{4-[2-(2-oxo-pyrrolidin-1-yl)-ethyl]-phenylamino}-5,8-dihydro-pyrido[2,3-d]pyrimidine-6-carboxylic acid methoxy-amide]",1.8
14,"CONC(=O)c1cn(C2CCCC2)c2nc(Nc3ccc(CCN4CCCC4=O)cc3)ncc2c1=O [Cpd 38, 8-cyclopentyl-5-oxo-2-{4-[2-(2-oxo-pyrrolidin-1-yl)-ethyl]-phenylamino}-5,8-dihydro-pyrido[2,3-d]pyrimidine-6-carboxylic acid methoxy-amide]",2
15,"CCc1ccc(-n2cc(C(=O)NOC)c(=O)c3cnc(Nc4ccc(CCN5CCC5)cc4)nc32)cc1 [Cpd 260, 2-[4-(2-azetidin-1-yl-ethyl)-phenylamino]-8-(4-ethyl-phenyl)-5-oxo-5,8-dihydro-pyrido[2,3-d]pyrimidine-6-carboxylic acid methoxy-amide]",0.61
